Read-outs that look alike come from different tables or passages of the source.
Assays:
Caco-2 cells [1] = assay: Intracellular accumulation of theaflavin monomers; conditions: 200 μM theaflavins, 2 h incubation, 37 °C
Procedure: Caco-2 cells were seeded at a density of 8 × 10^4 cells per well in 6-well plates (Ni et al., [2020]). After differentiation over a period of 21 days, cells were incubated with 2.0 mL of 200 μM theaflavins at 37 °C. After 2 h incubation, phosphate buffer was added to wash cells in the plate. Then, cell lysates were prepared with RIPA lysis buffer containing 1 mM PMSF as a protease inhibitor and centrifugated at 12,000 rpm for 30 min. Total protein contents were quantified using a BCA estimation kit according to the manufacturer’s instructions (Beyotime). Theaflavins were quantified by HPLC analysis and the intracellular accumulation was expressed as µg theaflavin/mg protein.
Theaflavins were characterized by high performance liquid chromatography (HPLC, Agilent 1100VL, Agilent Technologies Inc., CA, USA). Briefly, samples were extracted with 70% methanol, centrifuged at 685 × g for 10 min, and filtered through a 0.45 μm membrane (Nylon 66). […] Samples were eluted with a gradient of solvent A (100 mL water with 9 mL acetonitrile and 2 mL acetic acid) and B (100 mL acetonitrile with 17.8 mL water and 2 mL acetic acid) as follows: 0–5 min, 95% A; 5–10 min, 90% A; 10–20 min, 70% A; 20–25 min, 65% A; 25–30 min, 70% A; 30–35 min, 100% A. Theaflavins were detected using an ultraviolet detector at a wavelength of 278 nm.

MRP2 = assay: Quantitative real-time PCR, mRNA level of MRP2; format: cell-based, Human; conditions: Caco-2 cells, 200 μM, 2 h, vs control
Procedure: Cell culture and treatment were performed as described above in 2.6. Total RNA was extracted from Caco-2 cells by the cell RNA extraction kit, and then reverse-transcribed by the cDNA synthesis kit. Gene amplification and quantitative detection were performed as previously described (Ai et al., [2019]). Target mRNA levels were normalized to β-actin mRNA levels. Data were calculated by the 2^−ΔΔCT method.

Caco-2 cells [2] = assay: Cytotoxicity study by CCK-8 method; format: cell-based, Human; conditions: 24 h
Procedure: Standard stock solutions (1000 μM) of each theaflavin were prepared in 0.1% dimethyl sulfoxide (DMSO) in deionized water, and diluted with fresh DMEM to 100, 200, 300, 400, and 500 µmol/L respectively. Each inhibitor was prepared as instructions. The cytotoxicity of theaflavins and four inhibitors of multidrug resistant associated proteins to Caco-2 cells was examined by CCK-8 method (Song et al., [2014]). Briefly, Caco-2 cells were inoculated onto 96-well microtiter plates at a density of 1 × 10^4 cells per well. After incubation at 37 °C for 24 h, cells were incubated for another 24 h with different concentrations of theaflavins, followed by adding 10 μL CCK-8 solution and 1 h incubation at 37 °C. The absorbance (OD) value was determined at 450 nm using a microplate reader (ELX-800, Bio-Tek Instruments Inc., Winooski, USA). Four inhibitors were used in this study: Vep, inhibitor of P-gp; CsA, inhibitor and substrate of P-gp; MK-571, inhibitor of MRP1, MRP2 and MRP3; FTC, inhibitor of BCRP (Silbermann et al., [1989]; König et al., [1999]; Renes et al., [1999]; Ali et al., [2017]). The cytotoxicity of Vep, CsA, MK-571 or FTC was also determined by CCK-8 assay. […] To determine the effects of inhibitors on the cytotoxicity of theaflavins, cells were incubated with both different theaflavin monomers (100, 200, 300, 400, and 500 μM) and different inhibitors. IC50, the half inhibitory concentration, was calculated from the cell viability. The cell viability was calculated by the following equation: (1) Cell viability (%)=(ODsample− ODblank)/(ODcontrol− ODblank)×100% where ODsample is the absorbance value of cell + sample + complete medium; ODblank, the absorbance value of complete medium; ODcontrol, the absorbance value of cell + complete medium.

Caco-2 cell monolayers = assay: Transepithelial transport of theaflavins across Caco-2 cell monolayers, with or without efflux transporter inhibitors; format: in vitro ADME, Human; conditions: absorptive transport, 2 h
Procedure: (§1) For transport studies, Caco-2 cells were seeded at a density of 3 × 10^5 cells per well in Transwell® inserts (polycarbonate membrane, 24 mm i.d., 0.4 μm pore size, Corning Costar Corp., NY, USA) in 6-well plates (Zhang et al., [2004]). […] The inserts were washed twice with HBSS buffer and equilibrated at 37 °C for 30 min. Standard stock solutions of each theaflavin were diluted to 200 μM with HBSS. For absorptive transport, theaflavins in 1.5 mL HBSS was added into the AP side and 2.6 mL HBSS was added into the BL side of all inserts. For secretory transport, 1.5 mL HBSS and 2.6 mL theaflavins in HBSS were added into AP side and BL side, respectively. Samples were collected from the receiving chamber after 0.5, 1, 2, 3, or 4 h incubation and then were lyophilized at −110 °C in a CoolSafe freeze dryer (LaboGene ApS, Bjarkesvej, Denmark) for HPLC analysis. The recovery rate of theaflavins in the transport was calculated from the above Equation (2).
(§2) Prior to transport inhibition experiment, cells were preincubated for 30 min with 100 μM Vep, 100 μM CsA, 100 μM MK-571, or 10 μM FTC in both sides (Vaidyanathan & Walle, [2001]; Wang et al., [2008]). Then, the absorptive and secretory experiments were performed in the presence of inhibitors as described above. Samples were collected from the receiving chamber after 2 h incubation and then were lyophilized at −110 °C for HPLC analysis.
(§3) The apparent permeability coefficient (Papp, cm/s) was calculated as follows: (3) Papp= dQ/dt×V/(A×C0) where dQ/dt is the variation in concentration on the receiving side over time (μM/s); V, the volume of the solution collected from the receiving chamber (cm^3); A, the area of the membrane (4.67 cm^2); C0, the initial concentration of theaflavins in the donor chamber (μM).
(§4) The efflux ratio was calculated as follows: (4) Efflux ratio= Papp(BL−AP)/Papp(AP−BL) where Papp, apparent permeability coefficient; AP-BL, apical to basolateral transport; BL-AP, basolateral to apical transport.

[3] = as above; format: in vitro ADME, Human; conditions: human; for recovery at 2 h, 200 μM: Caco-2, Caco-2 monolayers, after 2 h incubation; for efflux ratio at 2 h, 200 μM / Papp A→B at 2 h, 200 μM / Papp B→A at 2 h, 200 μM: 2 h incubation
Procedure: as §1, §2, §3, §4

Caco-2 monolayers = assay: HPLC-MS/MS identification of metabolites in the absorptive transport of Caco-2 monolayers; format: in vitro ADME, Human; conditions: 200 µM, 2 h, AP side or BL side of Caco-2 monolayers
Procedure: TF3G, TF3’G and TFDG were dissolved in DMSO (≤0.5%), and then, diluted with HBSS. Caco-2 cells were incubated with 200 µM TF3G, TF3’G and TFDG at 37 °C for 2 h. Samples collected from both AP side and BL side were measured by HPLC with MS detection, and the metabolites were determined in terms of the standard TF, TF3G, TF3’G, TFDG, and gallic acid (Table S2).

[4] = Stability (recovery rate) of theaflavins in HBSS and DMEM in the absence of cells
Procedure: Standard stock solutions of each theaflavin were diluted with HBSS and DMEM respectively, obtaining final test solutions of 200 μM. The recovery rate of theaflavins in HBSS and in DMEM, in the absence of cells, was analyzed by HPLC after incubation at 37 °C for 0.5, 1, 2, 3, 4, 8, 12, and 24 hours, respectively. The recovery rate was used to measure the stability and calculated as follows: (2) Recovery rate=Ct/C0× 100% where Ct is the final concentration at different incubation time (μM); C0, the initial concentration (μM).
Theaflavins were characterized by high performance liquid chromatography (HPLC, Agilent 1100VL, Agilent Technologies Inc., CA, USA). Briefly, samples were extracted with 70% methanol, centrifuged at 685 × g for 10 min, and filtered through a 0.45 μm membrane (Nylon 66). The separation was performed by an ODS reversed-phase column (4.6 mm i.d.×250 mm, SB-C18, Agilent Technologies Inc., CA, USA) at a flow rate of 0.7 mL/min. Chromatographic conditions were slightly modified according to China National Standard (GB/T 30483-2013, GAQSIQ, P. R. China, 2013). Samples were eluted with a gradient of solvent A (100 mL water with 9 mL acetonitrile and 2 mL acetic acid) and B (100 mL acetonitrile with 17.8 mL water and 2 mL acetic acid) as follows: 0–5 min, 95% A; 5–10 min, 90% A; 10–20 min, 70% A; 20–25 min, 65% A; 25–30 min, 70% A; 30–35 min, 100% A. Theaflavins were detected using an ultraviolet detector at a wavelength of 278 nm.

Question: For `O=c1c(O)cc([C@H]2Oc3cc(O)cc(O)c3C[C@H]2O)cc2c([C@H]3Oc4cc(O)cc(O)c4C[C@H]3O)cc(O)c(O)c12` [TF, theaflavin], which “Contents of theaflavins absorbed in Caco-2 cells” value (Caco-2 cells [1]) is on record?
Answer: -

Question: And the “decrease of mRNA (transcriptional) level of MRP2” value (MRP2)?
Answer: 38.73%

Question: What about the IC50 (Caco-2 cells [2]; + CsA) of the same molecule?
Answer: 584 ± 26.9 µM

Question: And the IC50 (Caco-2 cells [2]; + FTC)?
Answer: 492 ± 34.2 µM

Question: What about the IC50 (Caco-2 cells [2]; + MK-571) of the same molecule?
Answer: 463 ± 80.8 µM

Question: And the IC50 (Caco-2 cells [2]; + VEP)?
Answer: 517 ± 66.2 µM

Question: And the IC50 (Caco-2 cells [2]; Homo sapiens, Ctrl (no inhibitor))?
Answer: 681 ± 19.2 µM

Question: What about the “increase of the influx” value (Caco-2 cell monolayers; with CsA vs control) of the same molecule?
Answer: 2.0 times

Question: What about the “fold increase in the influx” value (Caco-2 cell monolayers; with MK-571 vs control) of the same molecule?
Answer: 1.47 fold

Question: And the “fold increase in the influx” value (Caco-2 cell monolayers; with verapamil vs control)?
Answer: 1.50 fold

Question: And the recovery at 2 h, 200 μM ([3]; apical to basolateral, read-out: recovery of theaflavins in absorptive transport)?
Answer: 39.8%

Question: What about the recovery at 2 h, 200 μM ([3]; basolateral to apical, read-out: recovery of theaflavins in secretory transport) of the same molecule?
Answer: 48.9%

Question: What about the efflux ratio at 2 h, 200 μM ([3]; Caco-2, Papp(BL−AP)/Papp(AP−BL), Ctrl (no inhibitor)) of the same molecule?
Answer: 1.24 ± 0.09

Question: And the Papp A→B at 2 h, 200 μM ([3]; Caco-2, absorptive transport, 200 μM theaflavin in HBSS, Ctrl (no inhibitor))?
Answer: 0.277 ± 0.009 ×10⁻⁶ cm/s

Question: What about the Papp B→A at 2 h, 200 μM ([3]; Caco-2, secretory transport, 200 μM theaflavin in HBSS, Ctrl (no inhibitor)) of the same molecule?
Answer: 0.342 ± 0.014 ×10⁻⁶ cm/s

Question: And the efflux ratio at 2 h, 200 μM ([3]; Caco-2, with 10 μM FTC (BCRP inhibitor), + 10 μM FTC (BCRP inhibitor))?
Answer: 1.05 ± 0.08

Question: And the Papp A→B at 2 h, 200 μM ([3]; Caco-2, with 10 μM FTC (BCRP inhibitor), absorptive transport, + 10 μM FTC (BCRP inhibitor))?
Answer: 0.31 ± 0.01 ×10⁻⁶ cm/s

Question: And the Papp B→A at 2 h, 200 μM ([3]; Caco-2, with 10 μM FTC (BCRP inhibitor), secretory transport, + 10 μM FTC (BCRP inhibitor))?
Answer: 0.324 ± 0.013 ×10⁻⁶ cm/s

Question: And the efflux ratio at 2 h, 200 μM ([3]; Caco-2, with 100 μM CsA (P-gp inhibitor and substrate), + 100 μM CsA (P-gp inhibitor and substrate))?
Answer: 0.62 ± 0.05

Question: What about the Papp A→B at 2 h, 200 μM ([3]; Caco-2, with 100 μM CsA (P-gp inhibitor and substrate), absorptive transport, + 100 μM CsA (P-gp inhibitor and substrate)) of the same molecule?
Answer: 0.565 ± 0.019 ×10⁻⁶ cm/s

Question: What about the Papp B→A at 2 h, 200 μM ([3]; Caco-2, with 100 μM CsA (P-gp inhibitor and substrate), secretory transport, + 100 μM CsA (P-gp inhibitor and substrate)) of the same molecule?
Answer: 0.348 ± 0.014 ×10⁻⁶ cm/s

Question: What about the efflux ratio at 2 h, 200 μM ([3]; Caco-2, with 100 μM Vep (P-gp inhibitor), + 100 μM Vep (P-gp inhibitor)) of the same molecule?
Answer: 0.73 ± 0.05

Question: What about the Papp A→B at 2 h, 200 μM ([3]; Caco-2, with 100 μM Vep (P-gp inhibitor), absorptive transport, + 100 μM Vep (P-gp inhibitor)) of the same molecule?
Answer: 0.415 ± 0.014 ×10⁻⁶ cm/s

Question: And the Papp B→A at 2 h, 200 μM ([3]; Caco-2, with 100 μM Vep (P-gp inhibitor), secretory transport, + 100 μM Vep (P-gp inhibitor))?
Answer: 0.301 ± 0.012 ×10⁻⁶ cm/s

Question: What about the “conjugated metabolites (glucuronidated, sulfated and methylated)” value (Caco-2 monolayers) of the same molecule?
Answer: not detected

Question: And the “degraded due to the structural instability” value ([4]; 2 h)?
Answer: 9.3%

Question: And the “Recovery rate in DMEM” value ([4]; pH 6.0 DMEM without cells, 200 μM, 37 °C, 2 h incubation)?
Answer: < 45%
